Broadly, the IC50 is the point on the concentration scale where inhibition reaches its midpoint.

Experiment [1] concerns the target T1, Tyrosine-protein phosphatase non-receptor type 2 (Homo sapiens, UniProt P17706).
T1 sequence (P17706 whole entry): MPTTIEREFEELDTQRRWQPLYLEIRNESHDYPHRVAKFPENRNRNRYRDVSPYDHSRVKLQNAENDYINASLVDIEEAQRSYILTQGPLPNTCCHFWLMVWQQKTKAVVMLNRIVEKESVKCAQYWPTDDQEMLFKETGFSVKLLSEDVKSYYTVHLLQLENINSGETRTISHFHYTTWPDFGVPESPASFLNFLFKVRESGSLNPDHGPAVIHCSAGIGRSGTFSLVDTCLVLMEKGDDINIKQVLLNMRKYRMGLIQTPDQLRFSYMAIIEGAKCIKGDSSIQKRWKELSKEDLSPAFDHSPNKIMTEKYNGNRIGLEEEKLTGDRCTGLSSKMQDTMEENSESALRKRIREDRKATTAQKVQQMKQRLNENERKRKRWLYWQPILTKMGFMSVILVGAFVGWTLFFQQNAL
Kind of experiment: PTP1B and TCPTP Inhibition Assay. Particulars: pH 6.3; 22 °C.

Experiment [2] deals with T2, Tyrosine-protein phosphatase non-receptor type 1 [1-298] (Homo sapiens, UniProt P18031).
T2 construct: 1-298
T2 sequence (P18031 whole entry): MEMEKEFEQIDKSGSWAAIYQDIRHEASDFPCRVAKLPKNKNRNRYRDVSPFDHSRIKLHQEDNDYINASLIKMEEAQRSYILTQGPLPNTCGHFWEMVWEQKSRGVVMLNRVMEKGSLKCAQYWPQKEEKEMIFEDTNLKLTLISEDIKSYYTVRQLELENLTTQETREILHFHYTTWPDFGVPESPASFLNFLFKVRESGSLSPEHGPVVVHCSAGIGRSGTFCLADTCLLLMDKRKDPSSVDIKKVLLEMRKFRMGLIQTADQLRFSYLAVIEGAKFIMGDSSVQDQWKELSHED
In words: PTP1B and TCPTP Inhibition Assay. Particulars: pH 6.3; 22 °C.

For `O=P(O)(O)C(F)(F)c1ccc(CC(Cc2ccc(C(F)(F)P(=O)(O)O)cc2)(c2ccccc2)n2nnc3ccccc32)cc1`, the IC50 in experiment [1] turned out to be 11 nM.
Turning to `Cc1ccc2cc(-c3ccc(CC(Cc4ccc(C(F)(F)P(=O)(O)O)cc4)(c4ccccc4)n4nnc5ccccc54)cc3)cc(P(=O)(O)O)c2n1` (centres undefined), half-maximal inhibition in experiment [1] (IC50) required 20 nM.
`CC(C)CCOc1ccc(-c2ccc(CC(Cc3ccc(C(F)(F)P(=O)(O)O)cc3)(c3ccccc3)n3nnc4ccccc43)cc2)cc1P(=O)(O)O` (centres undefined) [5-{4-[2-(1H-1,2,3-benzotriazol-1-yl)-3-{4-[difluoro(phosphono)methyl]phenyl}-2-phenylpropyl]phenyl}-2-(3-methylbutoxy)benzene-1-phosphonic acid]: the figures for the IC50 in experiment [1] and in experiment [2] were 20 nM and 6 nM, respectively.
In the case of `COc1ccc(-c2ccc(CC(Cc3ccc(C(F)(F)P(=O)(O)O)cc3)(c3ccccc3)n3nnc4ccccc43)cc2)cc1P(=O)(O)O` (centres undefined) [5-{4-[2-(1H-1,2,3-benzotriazol-1-yl)-3-{4-[difluoro(phosphono)methyl]phenyl}-2-phenylpropyl]phenyl}-2-methoxybenzene-1-phosphonic acid], the IC50 in experiment [1] was found to be 31 nM; in experiment [2], 10 nM.
The like results for `CC(C)CC(O)c1ccc2cc(-c3ccc(CC(Cc4ccc(C(F)(F)P(=O)(O)O)cc4)(c4ccccc4)n4nnc5ccccc54)cc3)cc(P(=O)(O)O)c2n1` (centres undefined) [6-{4-[2-(1H-1,2,3-benzotriazol-1-yl)-3-{4-[difluoro(phosphono)methyl]phenyl}-2-phenylpropyl]phenyl}-2-(1-hydroxy-3-methylbutyl)quinoline-8-phosphonic acid] were, in that order, 17 nM and 6 nM.
On to `COC(CC(C)C)c1ccc2cc(-c3ccc(CC(Cc4ccc(C(F)(F)P(=O)(O)O)cc4)(c4ccccc4)n4nnc5ccccc54)cc3)cc(P(=O)(O)O)c2n1` (centres undefined) [6-{4-[2-(1H-1,2,3-benzotriazol-1-yl)-3-{4-[difluoro(phosphono)methyl]phenyl}-2-phenylpropyl]phenyl}-2-(1-methoxy-3-methylbutyl)quinoline-8-phosphonic acid], for which, in experiment [1], the IC50 came out at 36 nM.
As for `COCOC(CC(C)C)c1ccc2cc(-c3ccc(CC(Cc4ccc(C(F)(F)P(=O)(O)O)cc4)(c4ccccc4)n4nnc5ccccc54)cc3)cc(P(=O)(O)O)c2n1` (centres undefined) [6-{4-[2-(1H-1,2,3-benzotriazol-1-yl)-3-{4-[difluoro(phosphono)methyl]phenyl}-2-phenylpropyl]phenyl}-2-[1-(methoxymethoxy)-3-methylbutyl]quinoline-8-phosphonic acid], the IC50 amounted to 21 nM in experiment [1] and 11 nM in experiment [2].
With `O=P(O)(O)C(F)(F)c1ccc(CC(Cc2ccc(-c3ccccc3)cc2)(c2ccccc2)n2nnc3ccccc32)cc1` (centres undefined) [({4-[2-(1H-1,2,3-benzotriazol-1-yl)-2-phenyl-3-(4-phenylphenyl)propyl]phenyl}difluoromethyl)phosphonic acid], the IC50 came out at 24 nM in experiment [1] and 38 nM in experiment [2].
`O=P(O)(O)C(F)(F)c1ccc(C[C@H](c2ccccc2)n2nnc3ccccc32)cc1` [({4-[(2R)-2-(1H-1,2,3-benzotriazol-1-yl)-2-phenylethyl]phenyl}difluoromethyl)phosphonic acid] had an IC50 in experiment [2] of 8040 nM.

The values above are taken from BindingDB's records for doi:10.1021/bi035098j (Merck Research Laboratories, 2003).
